Measured values reported in patent US20230085307A1, “PYRIDAZINONE COMPOUND AND HERBICIDE” (NISSAN CHEMICAL CORPORATION, priority 2019, published 2023).

Assays:
late watergrass = assay: Test Example 1: herbicidal activity, application before weed generation under submerged conditions (Table 16, symbol A); format: in vivo, late watergrass (Echinochloa oryzicola); conditions: 320 g/ha applied herbicide
In short: (§1)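 Alluvial soil was flooded to 4 cm depth, weed seeds were sown mixed and 2.5-leaf rice seedlings were transplanted. On sowing day, the compound's emulsion, diluted in water to a set dose, was applied to the water surface. Plants grew at 25–30 °C and were scored 0–5 after three weeks.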

Japanese bulrush [1] = assay: Test Example 1: herbicidal activity, application before weed generation under submerged conditions (Table 16, symbol B); format: in vivo, Japanese bulrush (Schoenoplectus juncoides); conditions: 320 g/ha applied herbicide
In short: as §1

Japanese bulrush [2] = assay: Test Example 2: herbicidal activity, application during weed generation under submerged conditions (Table 17, symbol B); format: in vivo, Japanese bulrush (Schoenoplectus juncoides); conditions: AAH 320 g/ha; application during weed generation, submerged conditions
In short: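 Alluvial soil in Wagner pots was flooded to 4 cm depth and sown with the three weeds together; pots were kept in a greenhouse at 25° C. to 30° C. At the one to two leaf stage, an emulsion formulation diluted in water to a set rate went onto the water surface; scored three weeks later.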

barnyard grass [3] = assay: Test Example 3: herbicidal effect by foliage application, Wagner pot (Table 18, symbol H); format: in vivo, barnyard grass (Echinochloa crus-galli); conditions: 320 g/ha
In short: (§2)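 Plants were sown in alluvial soil held under 0.1–0.5 cm standing water and grown 14 days in a greenhouse at 25–30 °C. An emulsifiable formulation, water-diluted to the set dose, was then sprayed onto the foliage, and effects were scored three weeks later using previously defined criteria.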

Chinese sprangletop = assay: Test Example 3: herbicidal effect by foliage application, Wagner pot (Table 18, symbol D); format: in vivo, chinese sprangletop (Leptochloa chinensis); conditions: 320 g/ha
In short: as §2

southern crabgrass [4] = assay: Test Example 4: herbicidal effect by soil treatment (Table 19, symbol F); format: in vivo, southern crabgrass (Digitaria ciliaris); conditions: 320 g/ha
In short: (§3)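 Step 1: sow seeds in sterilized diluvial soil, cover ~1.5 cm. Step 2: spray diluted emulsion onto soil surface at predetermined rate. Step 3: greenhouse, 25–30° C, three weeks. Step 4: grade effect on each plant by earlier criteria.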

barnyard grass [5] = assay: Test Example 4: herbicidal effect by soil treatment (Table 19, symbol H); format: in vivo, barnyard grass (Echinochloa crus-galli); conditions: 320 g/ha
In short: as §3

windgrass [6] = assay: Test Example 4: herbicidal effect by soil treatment (Table 19, symbol L); format: in vivo, windgrass (Apera spica-venti); conditions: 320 g/ha
In short: as §3

velvetleaf [7] = assay: Test Example 4: herbicidal effect by soil treatment (Table 19, symbol M); format: in vivo, velvetleaf (Abutilon theophrasti); conditions: 320 g/ha
In short: as §3

lambsquarters [8] = assay: Test Example 4: herbicidal effect by soil treatment (Table 19, symbol O); format: in vivo, lambsquarters (Chenopodium album); conditions: 320 g/ha
In short: as §3

southern crabgrass [9] = assay: Test Example 5: herbicidal effect by foliage application, plastic box (Table 20, symbol F); format: in vivo, southern crabgrass (Digitaria ciliaris); conditions: foliage application, 320 g/ha, 3 weeks after application
In short: (§4)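 Foliar spray test: emulsion formulation diluted in water to a set application rate, sprayed onto 14-day-old plants raised in diluvial soil at 25° C to 30° C under glass. Both herbicidal effect and crop effect rated visually three weeks later.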

wild oat = assay: Test Example 5: herbicidal effect by foliage application, plastic box (Table 20, symbol I); format: in vivo, wild oat (Avena fatua); conditions: foliage application, 320 g/ha, 3 weeks after application
In short: as §4

Italian ryegrass = assay: Test Example 5: herbicidal effect by foliage application, plastic box (Table 20, symbol K); format: in vivo, Italian ryegrass (Lolium multiflorum); conditions: foliage application, 320 g/ha, 3 weeks after application
In short: as §4

windgrass [10] = assay: Test Example 5: herbicidal effect by foliage application, plastic box (Table 20, symbol L); format: in vivo, windgrass (Apera spica-venti); conditions: foliage application, 320 g/ha, 3 weeks after application
In short: as §4

velvetleaf [11] = assay: Test Example 5: herbicidal effect by foliage application, plastic box (Table 20, symbol M); format: in vivo, velvetleaf (Abutilon theophrasti); conditions: foliage application, 320 g/ha, 3 weeks after application
In short: as §4

lambsquarters [12] = assay: Test Example 5: herbicidal effect by foliage application, plastic box (Table 20, symbol O); format: in vivo, lambsquarters (Chenopodium album); conditions: foliage application, 320 g/ha, 3 weeks after application
In short: as §4

persian speedwell = assay: Test Example 5: herbicidal effect by foliage application, plastic box (Table 20, symbol R); format: in vivo, Persian speedwell (Veronica persica); conditions: foliage application, 320 g/ha, 3 weeks after application
In short: as §4

Row | SMILES | Herbicidal effect on A: late watergrass (grade 0-5) (late watergrass) | Herbicidal effect on B: Japanese bulrush (grade 0-5) (Japanese bulrush [1]) | herbicidal effect rating, B: Japanese bulrush (Japanese bulrush [2]) | herbicidal effect on H (barnyard grass), rating 0-5 (barnyard grass [3]) | herbicidal effect on D (Chinese sprangletop), rating 0-5 (Chinese sprangletop) | herbicidal effect rating, F: southern crabgrass (southern crabgrass [4]) | herbicidal effect rating, H: barnyard grass (barnyard grass [5]) | herbicidal effect rating, L: windgrass (windgrass [6]) | herbicidal effect rating, M: velvetleaf (velvetleaf [7]) | herbicidal effect rating, O: lambsquarters (lambsquarters [8]) | effect on southern crabgrass (F) (southern crabgrass [9]) | effect on wild oat (I) (wild oat) | effect on Italian ryegrass (K) (Italian ryegrass) | effect on windgrass (L) (windgrass [10]) | effect on velvetleaf (M) (velvetleaf [11]) | effect on lambsquarters (O) (lambsquarters [12]) | effect on persian speedwell (R) (persian speedwell)
1 | CCCC(=O)Oc1c(C)nn(C)c(=O)c1-c1c(-c2ccc(OCC)cc2)sc2ccc(F)cc12 [2-031] | 3 (Herbicidal rate of 40% or more and less than 70%) | 4 (Herbicidal rate of 70% or more and less than 90%) | 3 (Herbicidal rate of 40% or more and less than 70%) | 5 (Herbicidal rate of 90% or more (almost completely withered)) | 4 (Herbicidal rate of 70% or more and less than 90%) | 1 (Herbicidal rate of 5% or more and less than 20%) | 3 (Herbicidal rate of 40% or more and less than 70%) | 0 (Herbicidal rate of 5% or less (almost no effect)) | 3 (Herbicidal rate of 40% or more and less than 70%) | 4 (Herbicidal rate of 70% or more and less than 90%) | 0 (Herbicidal rate of 5% or less (almost no effect)) | 0 (Herbicidal rate of 5% or less (almost no effect)) | 0 (Herbicidal rate of 5% or less (almost no effect)) | 0 (Herbicidal rate of 5% or less (almost no effect)) | 5 (Herbicidal rate of 90% or more (almost completely withered)) | 5 (Herbicidal rate of 90% or more (almost completely withered)) | 5 (Herbicidal rate of 90% or more (almost completely withered))
2 | CCCOc1ccc(-c2sc3ccc(F)cc3c2-c2c(OC(=O)CCC)c(C)nn(C)c2=O)cc1 [2-033] | 4 (Herbicidal rate of 70% or more and less than 90%) | 5 (Herbicidal rate of 90% or more (almost completely withered)) | 4 (Herbicidal rate of 70% or more and less than 90%) | 5 (Herbicidal rate of 90% or more (almost completely withered)) | 1 (Herbicidal rate of 5% or more and less than 20%) | 0 (Herbicidal rate of 5% or less (almost no effect)) | 0 (Herbicidal rate of 5% or less (almost no effect)) | 0 (Herbicidal rate of 5% or less (almost no effect)) | 3 (Herbicidal rate of 40% or more and less than 70%) | 5 (Herbicidal rate of 90% or more (almost completely withered)) | 2 (Herbicidal rate of 20% or more and less than 40%) | 0 (Herbicidal rate of 5% or less (almost no effect)) | 2 (Herbicidal rate of 20% or more and less than 40%) | 0 (Herbicidal rate of 5% or less (almost no effect)) | 5 (Herbicidal rate of 90% or more (almost completely withered)) | 5 (Herbicidal rate of 90% or more (almost completely withered)) | 5 (Herbicidal rate of 90% or more (almost completely withered))
3 | CCCC(=O)Oc1c(C)nn(C)c(=O)c1-c1c(-c2ccc(OC(C)C)cc2)sc2ccc(F)cc12 [2-035] | 5 (Herbicidal rate of 90% or more (almost completely withered)) | 4 (Herbicidal rate of 70% or more and less than 90%) | 4 (Herbicidal rate of 70% or more and less than 90%) | 5 (Herbicidal rate of 90% or more (almost completely withered)) | 0 (Herbicidal rate of 5% or less (almost no effect)) | 3 (Herbicidal rate of 40% or more and less than 70%) | 2 (Herbicidal rate of 20% or more and less than 40%) | 0 (Herbicidal rate of 5% or less (almost no effect)) | 3 (Herbicidal rate of 40% or more and less than 70%) | 5 (Herbicidal rate of 90% or more (almost completely withered)) | 2 (Herbicidal rate of 20% or more and less than 40%) | 0 (Herbicidal rate of 5% or less (almost no effect)) | 0 (Herbicidal rate of 5% or less (almost no effect)) | 0 (Herbicidal rate of 5% or less (almost no effect)) | 5 (Herbicidal rate of 90% or more (almost completely withered)) | 3 (Herbicidal rate of 40% or more and less than 70%) | 5 (Herbicidal rate of 90% or more (almost completely withered))
4 | CCCCOc1ccc(-c2sc3ccc(F)cc3c2-c2c(OC(=O)CCC)c(C)nn(C)c2=O)cc1 [2-037] | 3 (Herbicidal rate of 40% or more and less than 70%) | 2 (Herbicidal rate of 20% or more and less than 40%) | 1 (Herbicidal rate of 5% or more and less than 20%) | 4 (Herbicidal rate of 70% or more and less than 90%) | 2 (Herbicidal rate of 20% or more and less than 40%) | 2 (Herbicidal rate of 20% or more and less than 40%) | 0 (Herbicidal rate of 5% or less (almost no effect)) | 0 (Herbicidal rate of 5% or less (almost no effect)) | 4 (Herbicidal rate of 70% or more and less than 90%) | 2 (Herbicidal rate of 20% or more and less than 40%) | 2 (Herbicidal rate of 20% or more and less than 40%) | 0 (Herbicidal rate of 5% or less (almost no effect)) | 0 (Herbicidal rate of 5% or less (almost no effect)) | 0 (Herbicidal rate of 5% or less (almost no effect)) | 5 (Herbicidal rate of 90% or more (almost completely withered)) | 4 (Herbicidal rate of 70% or more and less than 90%) | 5 (Herbicidal rate of 90% or more (almost completely withered))
